Experimental data: patent US8680058B2, “Selectively targeted antimicrobial peptides and the use thereof” (priority 2006, dated 2014)
No end group written: not given here.

Assays:
S. sanguinis = type: cell-based, S. sanguinis NY101
Description: (§1) 1.3 Determination of antimicrobial activity. The general antimicrobial activity of peptides against planktonic bacteria was determined by a MIC assay in TH broth (all oral streptococci) (Qi et al., 2005).
(§2) S. mutans, S. gordonii Challis (DL1), and S. sanguinis NY101 strains were grown in Todd Hewitt (TH, Fisher) broth medium at 37° C. under anaerobic conditions (80% N2, 10% CO2, and 10% H2). S. mutans strains UA159 (Ajdic et al., 2002), ATCC 25175, and T8 (Rogers, 1975), are wild-type clinical isolates, while comD is a knockout mutant that was constructed previously from the wild-type UA140 background (Qi et al., 2005). Luciferase expressing S. mutans strain JM11 was constructed from UA140 as described (Merritt et al., 2005). Exponentially growing bacterial cells were diluted to ˜1×10^5 cfu/mL in TH and placed into 96-well plates (Fisher). Peptides were then serially diluted and added to the bacteria.

S. gordonii biofilms = assay: Single-species biofilm regrowth after peptide exposure, S. gordonii; type: cell-based; conditions: 25 μM peptide, 1 min exposure
Description: (§3) 1.5 Examination of antimicrobial activity against single-species biofilms. To initiate biofilm formation, ˜1×10^7 bacteria per well (from overnight cultures) were seeded in TH medium (100 μL) to a 96-well flat-bottom plate. For all streptococci except S. mutans, the medium was supplemented with 0.5% (w/v) mannose and glucose. S. mutans UA159 biofilms were grown with 0.5% (w/v) sucrose. Plates were then centrifuged briefly to pellet the cells, and bacteria were incubated for 3-4 hours at 37° C. for biofilm formation. After incubation, the supernatant was carefully removed and biofilms were treated with 25 μM peptide in 1×PBS or 1×PBS alone for 1 min. The peptide solution was then removed and 100 μL TH was added to further dilute any remaining peptide. To minimize biofilm loss, cells were briefly centrifuged after TH addition, after which the supernatants were removed and fresh medium plus appropriate sugars were returned. Cells were then incubated anaerobically at 37° C. and biofilm growth was monitored over time by measuring absorbance at OD600 with a microplate spectrophotometer (Benchmark Plus, BioRad).

S. sanguinis biofilms = assay: Single-species biofilm regrowth after peptide exposure, S. sanguinis; type: cell-based; conditions: 25 μM peptide, 1 min exposure
Description: as §3

S. mutans biofilms = assay: Single-species biofilm regrowth after peptide exposure, S. mutans; type: cell-based, Streptococcus mutans; conditions: 25 μM peptide, 1 min exposure
Description: as §3

S. gordonii = type: cell-based, S. gordonii Challis (DL1)
Description: as §1, §2

S. mutans UA159 and comD = assay: Binding of fluorescently labeled peptides to S. mutans (fluorescence microscopy); design: species or system Streptococcus mutans; conditions: fluorescently labeled peptide
Text: To determine whether there was a region within the CSPC16 sequence that was responsible for S. mutans-specific binding, we synthesized a series of fluorescently labeled CSPC16 fragments, and analyzed their ability to bind to S. mutans. The following strategies were utilized in dissecting the CSPC16 sequence (Table 2): First, a series of fragments were constructed by generating deletions of 3 or 4 amino acids, from the N to C terminus, across the CSPC16 sequence (C16-1 to C16-5). Peptides lacking larger portions of the C or N termini of CSPC16 were also synthesized (C16-6 to C16-12). Additionally, peptides with Arg to […] (a positive to negative change in charge) (C16-4) or Phe to Gly substitutions (for a general decrease in hydrophobicity) (C16-3), as well as peptides representing a 4-residue Ala scan of the C16 sequence were constructed (C 16-15 to C16-18). […] These peptides include C16 (SEQ ID NO 1), C16-3 (SEQ ID NO 39), C16-4 (SEQ ID NO 40), C16-5 (SEQ ID NO 41), C16-6 (SEQ ID NO 42), C16-11 (SEQ ID NO 47), C16-12 (SEQ ID NO 5), C16-16 (SEQ ID NO 51), C16-17 (SEQ ID NO 52), and C16-18 (SEQ ID NO 53).
1.2 Fluorescent labeling of peptides and fluorescence microscopy. Aliquots of CSPC16 (SEQ ID NO 2), CSP-fragment peptides (Table 2), and C16G2 (SEQ ID NO 4) were labeled with carboxyfluorescein (Sigma) as described previously (Eckert et al., 2006). After peptide cleavage but prior to the bacterial labeling assay, fluorescence intensity per μM peptide was checked fluorimetrically (λex=488 nm, λem=520 nm VersaFluor, BioRad) and found to be relatively similar (data not shown). To evaluate the level of peptide binding to bacteria, streptococci from an overnight culture (OD600 of 0.7-1.0) were washed with phosphate buffered saline (1×PBS), diluted 1:2 into 1×PBS, and exposed to peptide (16 μM) for 5 min at 25° C. After incubation with peptide, unbound agent was removed from the bacteria by three cycles of centrifugation (5 min, 16,000×g) and resuspension in 1×PBS. Labeling of oral streptococci was evaluated using brightfield and fluorescence microscopy (Nikon E400) at a 40× magnification. The digital images utilized for the semi-quantitative binding assessment were acquired with the factory-supplied software (SPOT, Diagnostics).

TFFRLFNRSFTQALGKGGGKNLRIIRKGIHIIKKY-NH2 [Peptide C16G2]
MIC (S. sanguinis): 19.1 ± 4.0 µM | difference in susceptibility between G2 and C16G2 (S. sanguinis; MIC, S. sanguinis): ≤ 2 fold | biofilm re-growth after treatment (OD600) (S. gordonii biofilms): grew similarly to untreated biofilms | biofilm re-growth after treatment (OD600) (S. sanguinis biofilms): grew similarly to untreated biofilms | biofilm re-growth after treatment (OD600) (S. mutans biofilms): severely inhibited | MIC (S. gordonii): 23.5 ± 7.8 µM | difference in susceptibility between G2 and C16G2 (S. gordonii; MIC, S. gordonii): ≤ 2 fold | binding to S. mutans (in words) (S. mutans UA159 and comD): could specifically bind to S. mutans
